Test results: patent US20260356851A1, “TRICYCLIC COMPOUNDS AND USES THEREOF” (HUTCHMED LIMITED, priority 2023, published 2026)

How the values were obtained:
Assay type in all cases: cell-based
[1] = target: T1, pERK1/2 (Thr202/Tyr204), NCI-1H358 (KRAS G12C) (Homo sapiens, UniProt P01116, G12C); assay: Assay of intracellular pERK1/2 (Thr202/Tyr204) phosphorylation in NCI-H358 cells (KRAS G12C); conditions: pERK1/2, 2 days, read-out: NCI-H358 (KRAS G12C) IC50
T1 construct: pERK1/2 HTRF read-out
Summary of the method: (§1)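 HTRF detection of Thr202/Tyr204-phosphorylated ERK1/2 (665/615 nm ratio) in lysates from cells treated 2 days with serially 3-fold diluted compound.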

[2] = target: T2, pERK1/2 (Thr202/Tyr204), PANC-1 (KRAS G121D) (Homo sapiens, UniProt P01116, G12D); assay: Assay of intracellular pERK1/2 (Thr202/Tyr204) phosphorylation in PANC-1 cells (KRAS G12D); conditions: pERK1/2, 2 days, read-out: PANC-1 (KRAS G12D) IC50
T2 construct: pERK1/2 HTRF read-out
Summary of the method: as §1

[3] = target: T3, pERK1/2 (Thr202/Tyr204), NCI-1H441 (KRAS G12V) (Homo sapiens, UniProt P01116, G12V); assay: Assay of intracellular pERK1/2 (Thr202/Tyr204) phosphorylation in NCI-H441 cells (KRAS G12V); conditions: pERK1/2, 2 days, read-out: NCI-H441 (KRAS G12V) IC50
T3 construct: pERK1/2 HTRF read-out
Summary of the method: as §1

T1 sequence (P01116 1-188 isoform P01116-2 G12C): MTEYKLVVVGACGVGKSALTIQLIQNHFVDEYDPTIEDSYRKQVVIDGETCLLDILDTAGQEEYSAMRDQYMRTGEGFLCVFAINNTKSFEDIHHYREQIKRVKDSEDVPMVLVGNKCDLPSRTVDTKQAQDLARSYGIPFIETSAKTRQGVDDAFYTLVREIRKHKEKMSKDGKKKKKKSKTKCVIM
T3 sequence (P01116 1-188 isoform P01116-2 G12V): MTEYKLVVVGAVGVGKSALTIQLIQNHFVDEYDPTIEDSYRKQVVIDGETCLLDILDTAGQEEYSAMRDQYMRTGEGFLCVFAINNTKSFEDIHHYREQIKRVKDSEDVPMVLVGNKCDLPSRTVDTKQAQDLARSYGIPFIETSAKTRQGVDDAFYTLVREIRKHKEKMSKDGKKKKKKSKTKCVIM
T2 sequence (P01116 1-188 isoform P01116-2 G12D): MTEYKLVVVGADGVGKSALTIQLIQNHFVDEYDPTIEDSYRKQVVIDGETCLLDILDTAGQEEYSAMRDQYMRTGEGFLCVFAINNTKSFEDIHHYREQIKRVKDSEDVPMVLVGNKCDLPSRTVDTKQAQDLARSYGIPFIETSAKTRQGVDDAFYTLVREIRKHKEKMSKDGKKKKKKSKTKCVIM

| IC50 [1] [nM] | IC50 [2] [nM] | IC50 [3] [nM] | Compound |
| --- | --- | --- | --- |
| 21 | > 100 | 31 | [2H]C1([2H])CN(C(C)c2cccnc2N)c2nc(OC[C@@]34CCCN3C[C@H](F)C4)nc3c(F)c(-c4cc(N)cc(C)c4C(F)(F)F)nc(c23)O1 (single isomer, unassigned) [Compound 154, 3-((R or S)-1-(5-(5-amino-3-methyl-2-(trifluoromethyl)phenyl)-4-fluoro-2-(((2R,7aS)-2-fluorotetrahydro-1H-pyrrolizin-7a(5H)-yl)methoxy)-8,9-dihydro-10H-7-oxa-1,3,6,10-tetraazacyclohepta[de]naphthalen-10-yl-8,8-d2)ethyl)pyridin-2-amine] |
| 0.5 | > 100 | 2 | Cc1cc(N)cc(-c2nc3c4c(nc(OC[C@@H]5CCCN5C5COC5)nc4c2F)N(C(C)c2cccnc2N)CCO3)c1C(F)(F)F (single isomer, unassigned) [Compound 160, 3-((R or S)-1-(5-(5-amino-3-methyl-2-(trifluoromethyl)phenyl)-4-fluoro-2-(((S)-1-(oxetan-3-yl)pyrrolidin-2-yl)methoxy)-8,9-dihydro-10H-7-oxa-1,3,6,10-tetraazacyclohepta[de]naphthalen-10-yl)ethyl)pyridin-2-amine] |
| 14 | > 100 | 48 | Cc1cc(N)cc(-c2nc3c4c(nc(OC[C@@H]5CCCN5C5COC5)nc4c2F)N(C(C)c2cccnc2N)CCO3)c1C(F)(F)F (single isomer, unassigned) [Compound 161, 3-((R or S)-1-(5-(5-amino-3-methyl-2-(trifluoromethyl)phenyl)-4-fluoro-2-(((S)-1-(oxetan-3-yl)pyrrolidin-2-yl)methoxy)-8,9-dihydro-10H-7-oxa-1,3,6,10-tetraazacyclohepta[de]naphthalen-10-yl)ethyl)pyridin-2-amine] |
| 69 | > 100 | > 100 | Cc1cc(N)cc(-c2nc3c4c(nc(OC[C@@]56CCCN5C[C@H](F)C6)nc4c2F)N([C@H](C)c2cccnc2N)CCCO3)c1C(F)(F)F (single isomer, unassigned) [Compound 166, 3-((R or S)-1-(5-(5-amino-3-methyl-2-(trifluoromethyl)phenyl)-4-fluoro-2-(((2R,7aS)-2-fluorotetrahydro-1H-pyrrolizin-7a(5H)-yl)methoxy)-9,10-dihydro-77-oxa-1,3,6,11-tetraazacycloocta[de]naphthalen-11(8H)-yl)ethyl)pyridin-2-amine] |
| > 100 | > 100 | > 100 | Cc1cc(N)cc(-c2nc3c4c(nc(OC[C@@]56CCCN5C[C@H](F)C6)nc4c2F)N(C(C)c2cccnc2N)CCCO3)c1C(F)(F)F (single isomer, unassigned) [Compound 167, 3-((R or S)-1-(5-(5-amino-3-methyl-2-(trifluoromethyl)phenyl)-4-fluoro-2-(((2R,7aS)-2-fluorotetrahydro-1H-pyrrolizin-7a(5H)-yl)methoxy)-9,10-dihydro-7-oxa-1,3,6,11-tetraazacycloocta[de]naphthalen-11(8H)-yl)ethyl)pyridin-2-amine] |
| 0.7 | 17 | 2 | [2H][C@@]1(F)CN2CCC[C@@]2(COc2nc3c4c(nc(-c5cc(N)c(F)c(C)c5C(F)(F)F)c(F)c4n2)OCCN3C(C)c2cccnc2N)C1 (single isomer, unassigned) [Compound 169, (*)3-(1-(5-(5-amino-4-fluoro-3-methyl-2-(trifluoromethyl)phenyl)-4-fluoro-2-(((2S or 2R,7aS)-2-fluorotetrahydro-1H-pyrrolizin-7a(5H)-yl-2-d)methoxy)-8,9-dihydro-1OH-7-oxa-1,3,6,10-tetraazacyclohepta[de]naphthalen-10-yl)ethyl)pyridin-2-amine] |
| 0.2 | 2 | 0.5 | [2H][C@]1(F)CN2CCC[C@@]2(COc2nc3c4c(nc(-c5cc(N)c(F)c(C)c5C(F)(F)F)c(F)c4n2)OCCN3C(C)c2cccnc2N)C1 (single isomer, unassigned) [Compound 170, (*)3-(1-(5-(5-amino-4-fluoro-3-methyl-2-(trifluoromethyl)phenyl)-4-fluoro-2-(((2S or 2R,7aS)-2-fluorotetrahydro-1H-pyrrolizin-7a(5H)-yl-2-d)methoxy)-8,9-dihydro-1OH-7-oxa-1,3,6,10-tetraazacyclohepta[de]naphthalen-10-yl)ethyl)pyridin-2-amine] |
| 0.1 | 1 | 0.3 | [2H]C1([2H])CN(C(C)c2cccnc2N)c2nc(OC[C@@]34CCCN3C[C@H](F)C4)nc3c(F)c(-c4cc(N)c(F)c(C)c4C(F)(F)F)nc(c23)O1 (single isomer, unassigned) [Compound 183, 3-((R or S)-1-(5-(5-amino-4-fluoro-3-methyl-2-(trifluoromethyl)phenyl)-4-fluoro-2-(((2R,7aS)-2-fluorotetrahydro-1H-pyrrolizin-7a(5H)-yl)methoxy)-8,9-dihydro-10H-7-oxa-1,3,6,10-tetraazacyclohepta[de]naphthalen-10-yl-8,8-d2)ethyl)pyridin-2-amine] |
| 5 | 28 | 13 | [2H]C1([2H])CN(C(C)c2cccnc2N)c2nc(OC[C@@]34CCCN3C[C@H](F)C4)nc3c(F)c(-c4cc(N)c(F)c(C)c4C(F)(F)F)nc(c23)O1 (single isomer, unassigned) [Compound 184, 3-((R or S)-1-(5-(5-amino-4-fluoro-3-methyl-2-(trifluoromethyl)phenyl)-4-fluoro-2-(((2R,7aS)-2-fluorotetrahydro-1H-pyrrolizin-7a(5H)-yl)methoxy)-8,9-dihydro-10H-7-oxa-1,3,6,10-tetraazacyclohepta[de]naphthalen-10-yl-8,8-d2)ethyl)pyridin-2-amine] |
| 0.2 | 1 | 0.2 | [2H]C1([2H])Oc2nc(-c3cc(N)c(F)c(C)c3C(F)(F)F)c(F)c3nc(OC[C@@]45CCCN4C[C@H](F)C5)nc(c23)N(C(C)c2cccnc2N)C1([2H])[2H] (single isomer, unassigned) [Compound 199, 3-((R or S)-1-(5-(5-amino-4-fluoro-3-methyl-2-(trifluoromethyl)phenyl)-4-fluoro-2-(((2R,7aS)-2-fluorotetrahydro-1H-pyrrolizin-7a(5H)-yl)methoxy)-8,9-dihydro-10H-7-oxa-1,3,6,10-tetraazacyclohepta[de]naphthalen-10-yl-8,8,9,9-d4)ethyl)pyridin-2-amine] |
| 7 | 63 | 10 | [2H]C1([2H])Oc2nc(-c3cc(N)c(F)c(C)c3C(F)(F)F)c(F)c3nc(OC[C@@]45CCCN4C[C@H](F)C5)nc(c23)N(C(C)c2cccnc2N)C1([2H])[2H] (single isomer, unassigned) [Compound 200, 3-((R or S)-1-(5-(5-amino-4-fluoro-3-methyl-2-(trifluoromethyl)phenyl)-4-fluoro-2-(((2R,7aS)-2-fluorotetrahydro-1H-pyrrolizin-7a(5H)-yl)methoxy)-8,9-dihydro-10H-7-oxa-1,3,6,10-tetraazacyclohepta[de]naphthalen-10-yl-8,8,9,9-d4)ethyl)pyridin-2-amine] |
| 0.4 | 13 | 1 | [2H]C1([2H])Oc2nc(-c3cc(N)c(F)c(C)c3C(F)(F)F)c(F)c3nc(OC[C@@H]4C[C@@H](F)CN4C)nc(c23)N(C(C)c2cccnc2N)C1([2H])[2H] (single isomer, unassigned) [Compound 202, 3-((R or S)-1-(5-(5-amino-4-fluoro-3-methyl-2-(trifluoromethyl)phenyl)-4-fluoro-2-(((2S,4R)-4-fluoro-1-methylpyrrolidin-2-yl)methoxy)-8,9-dihydro-10H-7-oxa-1,3,6,10-tetraazacyclohepta[de]naphthalen-10-yl-8,8,9,9-d4)ethyl)pyridin-2-amine] |
| 88 | > 100 | > 100 | [2H]C1([2H])Oc2nc(-c3cc(N)c(F)c(C)c3C(F)(F)F)c(F)c3nc(OC[C@@H]4C[C@@H](F)CN4C)nc(c23)N(C(C)c2cccnc2N)C1([2H])[2H] (single isomer, unassigned) [Compound 203, 3-((R or S)-1-(5-(5-amino-4-fluoro-3-methyl-2-(trifluoromethyl)phenyl)-4-fluoro-2-(((2S,4R)-4-fluoro-1-methylpyrrolidin-2-yl)methoxy)-8,9-dihydro-10H-7-oxa-1,3,6,10-tetraazacyclohepta[de]naphthalen-10-yl-8,8,9,9-d4)ethyl)pyridin-2-amine] |
| 0.2 | 0.8 | 0.3 | [2H]C1([2H])Oc2nc(-c3cc(N)c(F)c(Cl)c3C(F)(F)F)c(F)c3nc(OC[C@@]45CCCN4C[C@H](F)C5)nc(c23)N(C(C)c2cccnc2N)C1([2H])[2H] (single isomer, unassigned) [Compound 206, 3-((R or S)-1-(5-(5-amino-3-chloro-4-fluoro-2-(trifluoromethyl)phenyl)-4-fluoro-2-(((2R,7aS)-2-fluorotetrahydro-1H-pyrrolizin-7a(5H)-yl)methoxy)-8,9-dihydro-10H-7-oxa-1,3,6,10-tetraazacyclohepta[de]naphthalen-10-yl-8,8,9,9-d4)ethyl)pyridin-2-amine] |
